This is an account of results in patent publication US7582660B2, “2-thio-substituted imidazole derivatives and their use in pharmaceutics” (c-a-i-r biosciences GmbH, priority 2002, dated 2009).

In experiment [1] the test system is IL-1β. Put plainly: In vitro test with human whole blood, LPS-stimulated IL-1β release (ELISA). To be noted: read-out: K50 (μM) Whole blood IL-1β. In kind it is cell-based. Here is the method: (§1) They may be administered in one individual dose or in a plurality of doses. The activity spectrum of the compounds as inhibitors of cytokine release was examined using the test systems below, as described by C. Donat and S. Laufer in Arch. Pharm. Pharm. […] 1, 1-40. 2000.
(§2) In Vitro Test with Human Whole Blood
(§3) The reaction is stopped by placing the samples on ice, adding DPBS buffer and then centrifuging at 1000 g for 15 min. The amount of IL-1β and TNFα in the plasma supernatant is then determined by ELISA.

A further experiment has as its target p 38 (Homo sapiens, UniProt Q16539). In words: Kinase assay (activated p38a, ATF2 substrate, ELISA readout). Format: biochemical. To be noted: ATF2, 100 μM ATP. On the procedure: The reaction is stopped by placing the samples on ice, adding DPBS buffer and then centrifuging at 15 880 g for 12 min. The amount of IL-1β and TNFα in the plasma supernatant is then determined by ELISA. 2) Kinase Assay • At 37° C., microtiter plates were coated for one hour with 50 μl of ATF2 solution (20 μg/ml). The plates were washed three times with water, and 50 μl of kinase mixture (50 mM tris-HCl, 10 mM MgCl2, 10 mM β-glycerol phosphate, 10 μg/ml of BSA, 1 mM DTT, 100 μM ATP, 100 μM Na3VO4, 10 ng of activated p38a) with or without inhibitor were added into the wells, and the plates were incubated at 37° C. for 1 hour. The plates were washed three times and then incubated with phosphorus-ATF-2 antibody for one hour. The plates were once more washed three times, and goat-antirabbit IgG labeled with alkaline phosphatase was added at 37° C. for one hour (to fix antibody-phosphorylated protein/substrate complex). The plates were washed three times, and the alkaline phosphatase/substrate solution (3 mM 4-NPP, 50 mM NaHCO3, 50 mM MgCl2, 100 μl/well) was added at 37° C. for 1.5 hours. […] The IC50 values were calculated.

Experiment [2] relates to TNF-α. Put plainly: In vitro test with PBMCs, LPS-stimulated TNFα release (ELISA). In kind it is cell-based. The note with it: human PBMCs, LPS 4 hours, read-out: IC50 (μM) PBMCA TNF-α. In general terms: ELISA stands for enzyme-linked immunosorbent assay.
Experiment [3] deals with IL-1β. In words: In vitro test with PBMCs, LPS-stimulated IL-1β release (ELISA). Format: cell-based. The note with it: human PBMCs, LPS 4 hours, read-out: IC50 (μM) PBMCA IL-1β.
Experiment [4] deals with TNF-α. Put plainly: In vitro test with human whole blood, LPS-stimulated TNFα release (ELISA). Format: cell-based. To be noted: 1 μg/ml LPS 4 hours, read-out: K50 (μM) Whole blood TNF-α. Here is the method: as §1, §2, §3
The mark [5] stands for this setting: human whole blood, 1 μg/ml LPS 4 hours.

The structures appear in SMILES notation.

Sequence of p 38 (Q16539 whole entry): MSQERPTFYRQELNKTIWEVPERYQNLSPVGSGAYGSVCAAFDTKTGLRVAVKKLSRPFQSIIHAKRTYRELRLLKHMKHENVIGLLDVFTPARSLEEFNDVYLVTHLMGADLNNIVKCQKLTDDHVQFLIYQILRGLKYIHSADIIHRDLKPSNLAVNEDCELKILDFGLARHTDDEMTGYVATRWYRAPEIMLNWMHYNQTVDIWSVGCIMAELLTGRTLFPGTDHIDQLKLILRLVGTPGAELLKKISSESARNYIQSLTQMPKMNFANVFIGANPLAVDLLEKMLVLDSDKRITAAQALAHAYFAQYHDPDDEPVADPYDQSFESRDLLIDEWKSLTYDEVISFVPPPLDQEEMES

As for `CSc1nc(-c2ccc(F)cc2)c(-c2ccnc(NC(C)c3ccccc3)c2)[nH]1` (racemic) [Compound 25m, (RS)-{4-[5-(4-Fluorophenyl)-2-methylsulfanyl-3H-imidazol-4-yl]pyridin-2-yl}-(1-phenylethyl)amine], the IC50 with IL-1β [1] (Homo sapiens, 4 h) is 0.99 µM.

For the compound `CC(Nc1cc(-c2[nH]c(SCc3ccccc3)nc2-c2ccc(F)cc2)ccn1)c1ccccc1` (racemic) [Compound 26d, (RS)-{4-[2-Benzylsulfanyl-S-(4-fluorophenyl)-3H-imidazol-4-yl]pyridin-2-yl}-(1-phenylethyl)amine], the results for the IC50 at p 38, with TNF-α [2] (PBMC) and in the experiment on IL-1β [3] (PBMC) were 0.38 µM, 2.7 µM and 0.045 µM, respectively.

For `CC(Nc1cc(-c2[nH]c(SCc3ccc([S+](C)[O-])cc3)nc2-c2ccc(F)cc2)ccn1)c1ccccc1` (racemic) [Compound 27d, (RS)-{4-[5-(4-Fluorophenyl)-2-(4-methanesulfinylbenzylsulfanyl)-3H-imidazol-4-yl]pyridin-2-yl}-(1-phenylethyl)amine], the IC50 in the experiment on IL-1β [1] (setting [5]) was found to be 15.7 µM; in the experiment on TNF-α [4] it was 10 µM; against p 38, 0.27 µM; in the experiment with TNF-α [2] (PBMC), 0.91 µM; with IL-1β [3] (PBMC) it was 0.04 µM.

Turning to `CSc1nc(-c2ccc(F)cc2)c(-c2ccnc(Cl)c2)[nH]1` [Compound 25a, 2-Chloro-4-[5-(4-fluorophenyl)-2-methylsulfanyl-3H-imidazol-4-yl]pyridine], the IC50 in the experiment with TNF-α [2] (PBMC) was found to be 2.2 µM; in the experiment on IL-1β [3] (PBMC), 0.35 µM.

`CSc1nc(-c2ccc(F)cc2)c(-c2ccnc(F)c2)[nH]1` [Compound 25b, 2-Fluoro-4-[5-(4-fluorophenyl)-2-methylsulfanyl-3H-imidazol-4-yl]pyridine]: the IC50 came to 3.8 µM on p 38, 2.8 µM in the experiment on TNF-α [2] (PBMC) and 0.3 µM in the experiment on IL-1β [3] (PBMC).

For `CSc1nc(-c2ccc(F)cc2)c(-c2ccnc(OC(C)C)c2)[nH]1` [Compound 25c, 4-[5-(4-Fluorophenyl)-2-methylsulfanyl-3H-imidazol-4-yl]-2-isopropoxypyridin], the IC50 in the experiment on IL-1β [1] (setting [5]) is 2.2 µM; in the experiment on TNF-α [4], 7.2 µM; against p 38, 8.7 µM; with TNF-α [2] (PBMC) it was 4.6 µM; in the experiment with IL-1β [3] (PBMC), 2.7 µM.

In the case of `COc1cc(-c2[nH]c(SC)nc2-c2ccc(F)cc2)ccn1` [Compound 25d, 4-[5-(4-Fluorophenyl)-2-methylsulfanyl-3H-imidazol-4-yl]-2-methoxypyridine], the IC50 was 1.9 µM with TNF-α [2] (PBMC) and 0.15 µM in the experiment on IL-1β [3] (PBMC).

`CSc1nc(-c2ccc(F)cc2)c(-c2cc[nH]c(=O)c2)[nH]1` [Compound 25e, 4-[5-(4-Fluorophenyl)-2-methylsulfanyl-3H-imidazol-4-yl]-1H-pyridin-2-one]: the IC50 was 3.1 µM in the experiment with TNF-α [2] (PBMC) and 0.5 µM in the experiment on IL-1β [3] (PBMC).

`CSc1nc(-c2ccc(F)cc2)c(-c2ccnc(NCc3ccccc3)c2)[nH]1` [Compound 25f, Benzyl{4-[S-(4-fluorophenyl)-2-methylsulfanyl-3H-imidazol-4-yl]pyridin-2-yl}-amine]: the values for the IC50 at p 38, in the experiment with TNF-α [2] and in the experiment on IL-1β [3] were 0.65 µM, 0.63 µM and 0.108 µM, respectively.

With `COc1ccc(CNc2cc(-c3[nH]c(SC)nc3-c3ccc(F)cc3)ccn2)cc1` [Compound 25g, {4-[5-(4-Fluorophenyl)-2-methylsulfanyl-3H-imidazol-4-yl]pyridin-2-yl}-(4-methoxybenzyl)amine], the IC50 at p 38 amounted to 0.79 µM; in the experiment with TNF-α [2] (PBMC), 0.64 µM; in the experiment on IL-1β [3] (PBMC), 0.056 µM.

With `CSc1nc(-c2ccc(F)cc2)c(-c2ccnc(NCc3ccc(C)cc3)c2)[nH]1` [Compound 25h, {4-[5-(4-Fluorophenyl)-2-methylsulfanyl-3H-imidazol-4-yl]pyridin-2-yl}-(4-methylbenzyl)amine], the IC50 with IL-1β [1] (setting [5]) came to 22.3 µM; in the experiment on TNF-α [4], 17.3 µM; at p 38, 0.83 µM; with TNF-α [2] (PBMC), 0.67 µM; in the experiment on IL-1β [3] (PBMC) it was 0.085 µM.

`CSc1nc(-c2ccc(F)cc2)c(-c2ccnc(NCc3ccc(Cl)cc3)c2)[nH]1` [Compound 25i, (4-Chlorobenzyl)-{4-[5-(4-fluorophenyl)-2-methylsulfanyl-3H-imidazol-4-yl]-pyridin-2-yl}amine]: the IC50 with IL-1β [1] (setting [5]) stood at 13.3 µM; in the experiment with TNF-α [4], 14.8 µM; against p 38, 0.95 µM; with TNF-α [2] (PBMC), 0.5 µM; in the experiment on IL-1β [3] (PBMC) it was 0.15 µM.

In the case of `CSc1nc(-c2ccc(F)cc2)c(-c2ccnc(NCc3ccc(Cl)c(Cl)c3)c2)[nH]1` [Compound 25j, (3,4-Dichlorobenzyl)-{4-[5-(4-fluorophenyl)-2-methylsulfanyl-3H-imidazol4-yl]-pyridin-2-yl}amine], the IC50 against p 38 worked out at 0.7 µM; in the experiment with TNF-α [2] (PBMC), 0.72 µM; in the experiment with IL-1β [3] (PBMC), 0.23 µM.

On to `CSc1nc(-c2ccc(F)cc2)c(-c2ccnc(Nc3ccccc3)c2)[nH]1` [Compound 25k, {4-[5-(4-Fluorophenyl)-2-methylsulfanyl-3H-imidazol-4-yl]pyridin-2-yl}-phenylamine], for which the IC50 turned out to be 0.13 µM against p 38, 0.34 µM in the experiment on TNF-α [2] (PBMC) and 0.03 µM in the experiment with IL-1β [3] (PBMC).

On to `CSc1nc(-c2ccc(F)cc2)c(-c2ccnc(NCCc3ccccc3)c2)[nH]1` [Compound 25l, {4-[5-(4-Fluorophenyl)-2-methylsulfanyl-3H-imidazol4-yl]pyridin-2-yl}-phenethylamine], for which the IC50 in the experiment with IL-1β [1] (setting [5]) worked out at 17.1 µM; in the experiment with TNF-α [4] it was 14.9 µM; against p 38 it was 0.24 µM; in the experiment on TNF-α [2] (PBMC) it was 0.35 µM; in the experiment with IL-1β [3] (PBMC), 0.031 µM.

As to `Fc1ccc(-c2nc(SCc3ccccc3)[nH]c2-c2ccnc(Cl)c2)cc1` [Compound 26a, 4-[2-Benzylsulfanyl-5-(4-fluorophenyl)-3H-imidazol-4-yl]-2-chloropyridine], the IC50 in the experiment with TNF-α [2] (PBMC) amounted to 60 µM; in the experiment with IL-1β [3] (PBMC) it was 1.8 µM.

In the case of `Fc1ccc(-c2nc(SCc3ccccc3)[nH]c2-c2ccnc(F)c2)cc1` [Compound 26b, 4-[2-Benzylsulfanyl-5-(4-fluorophenyl)-3H-imidazol-4-yl]-2-fluoropyridine], the IC50 on p 38 stood at 4.2 µM; in the experiment with TNF-α [2] (PBMC) it was 40.5 µM; in the experiment with IL-1β [3] (PBMC), 2.9 µM.

`Fc1ccc(-c2nc(SCc3ccccc3)[nH]c2-c2ccnc(NCc3ccccc3)c2)cc1` [Compound 26c, Benzyl-{4-[2-benzylsulfanyl-5-(4-fluorophenyl)-3H-imidazol-4-yl]pyridin-2-yl}-amine]: the results for the IC50 at p 38, in the experiment on TNF-α [2] (PBMC) and in the experiment with IL-1β [3] (PBMC) were 1.42 µM, 3.2 µM and 0.2 µM, respectively.

`COc1ccc(CNc2cc(-c3[nH]c(SCc4ccccc4)nc3-c3ccc(F)cc3)ccn2)cc1` [Compound 26e, {4-[2-Benzylsulfanyl-5-(4-fluorophenyl)-3H-imidazol-4-yl]pyridin-2-yl}-(4-methoxybenzyl)amine]: the IC50 in the experiment on TNF-α [2] (PBMC) is 21 µM; with IL-1β [3] (PBMC) it was 0.18 µM.

Regarding `C[S+]([O-])c1ccc(CSc2nc(-c3ccc(F)cc3)c(-c3ccnc(Cl)c3)[nH]2)cc1` (centres unmarked) [Compound 27a, 2-Chloro-4-[5-(4-fluorophenyl)-2-(4-methanesulfinylbenzylsulfanyl)-3H-imidazol-4-yl]pyridine], the IC50 in the experiment with TNF-α [2] (PBMC) stood at 12 µM; in the experiment on IL-1β [3] (PBMC) it was 2.1 µM.

On to `C[S+]([O-])c1ccc(CSc2nc(-c3ccc(F)cc3)c(-c3ccnc(F)c3)[nH]2)cc1` (centres unmarked) [Compound 27b, 2-Fluoro-4-[5-(4-fluorophenyl)-2-(4-methanesulfinylbenzylsulfanyl)-3H-imidazol-4-yl]pyridine], for which the IC50 is 9.3 µM against p 38, 6.9 µM with TNF-α [2] (PBMC) and 2.45 µM with IL-1β [3] (PBMC).

On to `C[S+]([O-])c1ccc(CSc2nc(-c3ccc(F)cc3)c(-c3ccnc(NCc4ccccc4)c3)[nH]2)cc1` (centres unmarked) [Compound 27c, Benzyl-{4-[5-(4-fluorophenyl)-2-(4-methanesulfinylbenzylsulfanyl)-3H-imidazol-4-yl]pyridin-2-yl}amine], for which the values for the IC50 against p 38, in the experiment on TNF-α [2] (PBMC) and in the experiment with IL-1β [3] (PBMC) were 1.45 µM, 2 µM and 0.47 µM, respectively.
